Experimental data reported in ChEMBL document CHEMBL4840321, “Limonoids with Diverse Oxidation Patterns of C-12 Indicating a Complete Ring C-seco Biogenetic Pathway from Munronia unifoliolata” (J Nat Prod, 2021).
The source made the active and inactive calls. The calls are words filed in the database; no cut-off is given here.

Tests used:
RAW264.7 = assay: Inhibition of NO production in LPS-stimulated mouse RAW264.7 cells; type: functional, cell-based
[1] = Cytotoxicity against human MCF7-DOX cells measured after 48 hrs by MTT assay; type: cell-based
[2] = Anti-MDR activity in human MCF7-DOX cells assessed as reversal of cell resistance to doxorubicin by measuring reversal fold at 10 uM measured after 48 hrs by MTT assay; type: functional
[3] = Anti-MDR activity in human MCF7-DOX cells assessed as reversal of cell resistance to doxorubicin by measuring reversal fold at 30 uM measured after 48 hrs by MTT assay; type: functional

In the case of `C/C=C(\C)C(=O)O[C@H]1C[C@@H](OC(C)=O)[C@@]2(C)CO[C@H]3[C@H]4O[C@]5(C)[C@H]6C[C@H](O[C@@H]7O[C@@H](OC)C[C@@]76O)[C@]5(O)[C@@]4(C)[C@H](C(=O)CO)[C@]1(C)[C@@H]32`, the inhibition (RAW264.7) is reported as “inactive” and the Activity [1] is reported as “Non-Toxic”.
For `C/C=C(\C)C(=O)O[C@H]1C[C@@H](OC(C)=O)[C@@]2(C(=O)OC)CO[C@H]3[C@H]4O[C@]5(C)[C@H]6C[C@H](O[C@@H]7OC=C[C@@]76O)[C@]5(O)[C@@]4(C)[C@H](C(=O)CO)[C@]1(C)[C@@H]32`, the inhibition (RAW264.7) was “inactive” and the Activity [1] was “Non-Toxic”.
For `C/C=C(\C)C(=O)O[C@@H]1C[C@H](OC(C)=O)[C@]23CO[C@H](CO)[C@H]2[C@](C)([C@]24O[C@@]2(C)[C@H]2C[C@@H]4O[C@@H]4O[C@H](OC)C[C@]42O)[C@H](O)[C@@H]2OC[C@@]1(C(=O)OC)[C@H]23`, the inhibition (RAW264.7) was “inactive” and the Activity [1] was “Non-Toxic”.
For `C/C=C(\C)C(=O)O[C@H]1C[C@@H](OC(C)=O)[C@@]2(C)CO[C@H]3[C@@H](O)[C@@]4(C)C5=C(C)[C@H](c6ccoc6)C[C@@H]5O[C@@H](OC)C[C@@H]4[C@]1(C)[C@@H]32`, the inhibition (RAW264.7) was “inactive” and the Activity [1] was “Non-Toxic”.
For `CC(=O)O[C@H]1C[C@@H](OC(C)=O)[C@@]2(C)CO[C@H]3[C@@H](O)[C@@]4(C)C5=CC[C@@H](c6ccoc6)[C@]5(C)CC[C@@H]4[C@]1(C)[C@@H]32` [DIACETYLVILASININ], the “fold change (FC)” value [2] was 7.8, the inhibition (RAW264.7) was “inactive” and the Activity [1] was “Non-Toxic”. For the same compound, the “fold change (FC)” value [3] was 18.3.
With `C/C=C(\C)C(=O)O[C@H]1C[C@@H](OC(C)=O)[C@@]2(C)CO[C@H]3[C@@H](O)[C@@]4(C)C5=C(C)[C@H](c6ccoc6)C[C@@H]5OCC[C@@H]4[C@]1(C)[C@@H]32` the “fold change (FC)” value [2] was 2.7, the inhibition (RAW264.7) was “inactive” and the Activity [1] was “Non-Toxic”. The “fold change (FC)” value [3] was 5.2.
With `C/C=C(\C)C(=O)O[C@H]1C[C@@H](OC(C)=O)[C@@]2(C)CO[C@H]3[C@@H](O)[C@@](C)(C4=C(C)[C@H](c5ccoc5)CC4=O)[C@H](C(=O)CO)[C@]1(C)[C@@H]32` the inhibition (RAW264.7) was “inactive” and the Activity [1] was “Non-Toxic”.
With `C/C=C(\C)C(=O)O[C@@H]1C[C@H](OC(C)=O)[C@]23CO[C@H](CO)[C@H]2[C@](C)([C@]24O[C@@]2(C)[C@H]2C[C@@H]4O[C@@H]4O[C@H](OCC)C[C@@]42O)[C@H](O)[C@@H]2OC[C@@]1(C(=O)OC)[C@H]23` the inhibition (RAW264.7) was “inactive” and the Activity [1] was “Non-Toxic”.
With `C/C=C(\C)C(=O)O[C@H]1C[C@@H](OC(C)=O)[C@@]2(C)CO[C@H]3[C@@H](O)[C@]4(C)[C@H](C[C@@H]5O[C@H]6CC(c7ccoc7)=C(C)[C@@]64O5)[C@]1(C)[C@@H]32` the inhibition (RAW264.7) was “inactive” and the Activity [1] was “Non-Toxic”.
In the case of `CC(=O)O[C@@H]1C[C@H](OC(=O)c2ccccc2)[C@@]2(C)[C@H]3[C@@H](OC[C@]13C)[C@@H](O)[C@@]1(C)C3=C(C)[C@H](c4ccoc4)C[C@@H]3OCC[C@@H]12`, the inhibition (RAW264.7) is reported as “inactive” and the Activity [1] is reported as “Non-Toxic”.
For `C/C=C(\C)C(=O)O[C@H]1C[C@@H](OC(C)=O)[C@@]2(C)CO[C@H]3[C@@H](O)[C@@]4(C)C5=CC[C@@H](c6ccoc6)[C@]5(C)OCC[C@@H]4[C@]1(C)[C@@H]32`, the inhibition (RAW264.7) was “inactive” and the Activity [1] was “Non-Toxic”.
In the case of `C/C=C(\C)C(=O)O[C@H]1C[C@@H](OC(C)=O)[C@@]2(C)CO[C@H]3[C@@H](O)[C@@]4(C)C5=C(C)[C@H](C6=CCOC6=O)C[C@@H]5O[C@@H](OCC)C[C@@H]4[C@]1(C)[C@@H]32`, the inhibition (RAW264.7) is reported as “inactive” and the Activity [1] is reported as “Non-Toxic”.
For `CC(=O)O[C@H]1C[C@@H](OC(C)=O)[C@@]2(C)CO[C@H]3[C@@H](O)[C@@]4(C)C5=C(C)[C@H](c6ccoc6)C[C@@H]5OCC[C@@H]4[C@]1(C)[C@@H]32`, the inhibition (RAW264.7) was “inactive” and the Activity [1] was “Non-Toxic”.
For `C/C=C(\C)C(=O)O[C@H]1C[C@@H](OC(C)=O)[C@@]2(C)CO[C@H]3[C@@H](O)[C@@]4(C)C5=C(C)[C@H](c6ccoc6)C[C@@H]5O[C@@H](OCC)C[C@@H]4[C@]1(C)[C@@H]32`, the inhibition (RAW264.7) was “inactive” and the Activity [1] was “Non-Toxic”.
In the case of `C/C=C(\C)C(=O)O[C@H]1C[C@@H](OC(C)=O)[C@@]2(C)CO[C@H]3[C@@H](O)[C@@]4(C)C5=C(C)[C@H](C6=CCOC6=O)C[C@@H]5OCC[C@@H]4[C@]1(C)[C@@H]32`, the inhibition (RAW264.7) is reported as “inactive” and the Activity [1] is reported as “Non-Toxic”.
For `C/C=C(\C)C(=O)O[C@H]1C[C@@H](OC(C)=O)[C@@]2(C)CO[C@H]3[C@H]4O[C@]5(C)[C@H]6C[C@H](O[C@@H]7OC=C[C@@]76O)[C@]5(O)[C@@]4(C)[C@H](C(=O)CO)[C@]1(C)[C@@H]32`, the inhibition (RAW264.7) was “inactive” and the Activity [1] was “Non-Toxic”.
In the case of `C/C=C(\C)C(=O)O[C@@H]1C[C@H](OC(C)=O)[C@]23CO[C@H](CO)[C@H]2[C@](C)([C@]24O[C@@]2(C)[C@H]2C[C@@H]4O[C@@H]4O[C@H](OC)C[C@@]42O)[C@H](O)[C@@H]2OC[C@@]1(C(=O)OC)[C@H]23`, the inhibition (RAW264.7) is reported as “inactive” and the Activity [1] is reported as “Non-Toxic”.
In the case of `C/C=C(\C)C(=O)O[C@H]1C[C@@H](OC(C)=O)[C@@]2(C)CO[C@H]3[C@@H](O)[C@@]4(C)C5=C(C)[C@H](C6=CCOC6=O)C[C@@H]5O[C@@H](OC)C[C@@H]4[C@]1(C)[C@@H]32`, the inhibition (RAW264.7) is reported as “inactive” and the Activity [1] is reported as “Non-Toxic”.
In the case of `CC(=O)O[C@H]1C[C@@H](OC(C)=O)[C@@]2(C)CO[C@H]3[C@@H](O)[C@@]4(C)C5=CC[C@@H](c6ccoc6)[C@]5(C)OCC[C@@H]4[C@]1(C)[C@@H]32`, the inhibition (RAW264.7) is reported as “inactive” and the Activity [1] is reported as “Non-Toxic”.
For `CO[C@H]1C[C@H]2[C@](C)(C3=C(C)[C@H](c4ccoc4)C[C@@H]3O1)[C@H](O)[C@@H]1OC[C@]3(C)[C@H](OC(C)=O)C[C@H](OC(=O)c4ccccc4)[C@@]2(C)[C@@H]13`, the inhibition (RAW264.7) was “inactive” and the Activity [1] was “Non-Toxic”.
With `COc1ccc(CCN(C)CCCC(C#N)(c2ccc(OC)c(OC)c2)C(C)C)cc1OC` (stereo not drawn) [VERAPAMIL] the “fold change (FC)” value [2] was 9.2.
In the case of `C/C=C(\C)C(=O)O[C@H]1C[C@@H](OC(C)=O)[C@@]2(C)CO[C@H]3[C@@H](O)[C@@]4(C)C5=C(C)[C@H](c6ccoc6)C[C@@H]5O[C@H](OC)C[C@@H]4[C@]1(C)[C@@H]32`, the “fold change (FC)” value [2] is reported as 3.4, the inhibition (RAW264.7) is reported as “inactive” and the Activity [1] is reported as “Non-Toxic”. For the same compound, the “fold change (FC)” value [3] was 4.5.
With `CC(=O)OCC[C@H]1[C@]2(C)C3=C(C)[C@H](c4ccoc4)C[C@H]3O[C@@H]2[C@@H]2OC[C@]3(C)[C@H](OC(C)=O)C[C@H](OC(C)=O)[C@@]1(C)[C@@H]23` the inhibition (RAW264.7) was “inactive” and the Activity [1] was “Non-Toxic”.
In the case of `C/C=C(\C)C(=O)O[C@H]1C[C@@H](OC(C)=O)[C@@]2(C)CO[C@H]3[C@@H](O)[C@@]4(C)C5=C(C)[C@H](c6ccoc6)C[C@@H]5O[C@@H](O)C[C@@H]4[C@]1(C)[C@@H]32`, the inhibition (RAW264.7) is reported as “inactive” and the Activity [1] is reported as “Non-Toxic”.
